In US10144915B2, “Reprogramming fibroblasts into cardiomyocytes” (The J. David Gladstone Institutes, a testamentary trust …, priority 2013, dated 2018):

Key:
SAPK2/p38 = SAPK2/p38 (Homo sapiens, UniProt Q16539); conditions: CK1 and ALK5 inhibitor versus SAPK2/p38; cited from earlier work
adenylate cyclase 1 = adenylate cyclase 1 (Homo sapiens, UniProt Q08828); conditions: cited from earlier work
[1] = tested on: cardiomyocytes generated from mouse tail tip fibroblasts (TTFs); assay: β-adrenergic and muscarinic stimulation of induced cardiomyocytes (beating, Ca2+ transients); type: cell-based; conditions: applied locally
Procedure: Myocytes were loaded with 5 μM Fluo-4 AM (Molecular Probes, Invitrogen Corp, Carlsbad, Calif.), a Ca^++ indicator dye for 20 minutes at room temperature followed by 20 minutes in dye-free extracellular solution to allow for Fluo-4 de-esterification prior to commencing recordings. Ca^++ transients were recorded via a standard filter set (#49011 ET, Chroma Technology Corp., Bellows Falls, Vt.) and a photomultiplier-based recording system (lonOptix PMT400, Milton, Mass.). Fluorescence was recorded simultaneously from an entire myocyte cluster. Between sampling periods, excitation light was blocked by a shutter (CS35; Vincent Associates, Rochester, N.Y.) and background fluorescence was recorded after removing the cell(s) from the field of view at the end. Where applicable, 1 μM isoproterenol (Iso) or 25 μM carbachol (Cch) were applied locally (to the cell cluster of interest) using a perfusion pencil (AutoMate Scientific, Berkeley, Calif.).
Intact […] nervous system responses to hormones and transmitters are one of the most critical characteristics of normal cardiomyocytes. […] After washing out carbachol, cells resumed contracting and the Ca^2+ transients immediately returned to normal (FIG. 4H).

Chain of SAPK2/p38 (Q16539 whole entry): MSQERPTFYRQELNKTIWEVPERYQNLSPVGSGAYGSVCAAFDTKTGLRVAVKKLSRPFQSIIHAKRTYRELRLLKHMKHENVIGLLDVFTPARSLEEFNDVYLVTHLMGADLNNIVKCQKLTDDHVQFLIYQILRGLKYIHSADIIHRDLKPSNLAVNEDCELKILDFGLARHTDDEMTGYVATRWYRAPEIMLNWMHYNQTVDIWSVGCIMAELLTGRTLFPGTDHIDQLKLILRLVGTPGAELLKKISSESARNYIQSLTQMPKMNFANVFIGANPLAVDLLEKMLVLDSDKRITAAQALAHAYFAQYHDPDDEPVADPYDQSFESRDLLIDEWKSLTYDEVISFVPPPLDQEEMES
Chain of adenylate cyclase 1 (Q08828 whole entry): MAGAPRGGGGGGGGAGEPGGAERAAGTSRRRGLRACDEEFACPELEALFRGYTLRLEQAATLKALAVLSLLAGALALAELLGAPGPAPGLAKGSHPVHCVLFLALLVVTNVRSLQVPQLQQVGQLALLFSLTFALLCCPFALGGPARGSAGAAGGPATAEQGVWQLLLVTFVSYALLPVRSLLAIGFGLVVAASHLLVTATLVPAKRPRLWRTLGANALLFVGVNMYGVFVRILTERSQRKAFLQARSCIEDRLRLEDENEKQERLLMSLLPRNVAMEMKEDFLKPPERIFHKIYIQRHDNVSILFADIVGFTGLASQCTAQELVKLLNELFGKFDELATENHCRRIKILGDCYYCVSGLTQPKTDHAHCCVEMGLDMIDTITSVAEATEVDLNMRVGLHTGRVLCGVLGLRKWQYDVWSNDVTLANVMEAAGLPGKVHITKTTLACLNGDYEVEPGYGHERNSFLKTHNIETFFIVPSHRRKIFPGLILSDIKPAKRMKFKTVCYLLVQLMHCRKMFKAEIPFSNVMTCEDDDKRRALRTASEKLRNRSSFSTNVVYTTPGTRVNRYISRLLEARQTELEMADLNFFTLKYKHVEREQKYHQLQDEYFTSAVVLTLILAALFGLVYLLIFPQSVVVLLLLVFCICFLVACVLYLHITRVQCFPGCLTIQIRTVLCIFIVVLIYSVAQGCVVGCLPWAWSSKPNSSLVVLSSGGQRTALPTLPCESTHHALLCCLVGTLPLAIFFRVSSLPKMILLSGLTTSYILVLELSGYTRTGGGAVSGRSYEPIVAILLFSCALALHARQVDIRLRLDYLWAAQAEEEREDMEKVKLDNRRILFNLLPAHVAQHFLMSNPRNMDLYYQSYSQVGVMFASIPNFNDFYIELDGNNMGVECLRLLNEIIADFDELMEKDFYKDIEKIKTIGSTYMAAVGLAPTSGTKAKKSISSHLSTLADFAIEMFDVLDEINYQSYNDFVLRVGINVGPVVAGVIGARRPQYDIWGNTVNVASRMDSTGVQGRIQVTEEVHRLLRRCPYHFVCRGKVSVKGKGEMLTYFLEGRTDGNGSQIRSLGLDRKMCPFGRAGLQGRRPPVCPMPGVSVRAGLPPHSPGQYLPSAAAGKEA

For NC(=O)c1ccc(-c2nc(-c3ccc4c(c3)OCCO4)c(-c3ccccn3)[nH]2)cc1 [D 4476, 4-[4-(2,3-Dihydro-1,4-benzodioxin-6-yl)-5-(2-pyridinyl)-1H-imidazol-2-yl]benzamide], the “selectivity over SAPK2/p38” value (SAPK2/p38) is listed as “greater than 20 fold”.

In the case of C=C[C@@]1(C)CC(=O)[C@]2(O)[C@@]3(C)[C@@H](O)CCC(C)(C)[C@@H]3[C@H](O)[C@H](OC(C)=O)[C@@]2(C)O1 [Forskolin], the IC50 (adenylate cyclase 1) is given as 40 to 150 nM.

For C[N+](C)(C)CCOC(N)=O [carbachol], the “frequency of cell contracting and spontaneous calcium transients” value ([1]; 25 μM, reversible on wash-out) was “opposite effect”.

In the case of CC(C)NCC(O)c1ccc(O)c(O)c1 (stereo not shown) [isoproterenol], the “frequency of cell contracting and spontaneous calcium transients” value ([1]; 1 μM) is reported as “significantly increased”.
